Assay results as given in US20130261077A1 (priority 2012, published 2013).

The molecules below were run against T1, FimH-CRD (Escherichia coli, UniProt P08191) (assay: Competitive binding assay by fluorescence polarization, assay 2 (compounds prepared by robotics, plates frozen and thawed)).
T1 construct: The first 177 amino acids of the FimH protein; thrombin tag (printed as 'fusion protein with thrombin') (cleaved yes); made in house; host or cells: bacteria (pET21b plasmid)
Summary of the method: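 Compounds at 0.4 nM–75 μM final (12 points, 3-fold steps, duplicate) compete with a 5 nM Alexa 647 mannoside probe for 60 nM FimH-CRD; 5 h room-temperature incubation in pH 7.0 Tris buffer with 2.5% DMSO, FP read-out, Kd from fitted curves. Assay 1 uses manual dilution, assay 2 robot-made frozen/thawed plates.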

T1 sequence (P08191 22-177): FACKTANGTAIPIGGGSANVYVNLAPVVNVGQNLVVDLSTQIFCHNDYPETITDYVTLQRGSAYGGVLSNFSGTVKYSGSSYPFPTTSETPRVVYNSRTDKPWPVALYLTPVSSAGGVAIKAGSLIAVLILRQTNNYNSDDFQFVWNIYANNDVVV

| Compound | Kd [nM] |
| --- | --- |
| CNC(=O)c1ccc(-c2cccc([C@H]3O[C@H](CO)[C@@H](O)[C@H](O)[C@@H]3O)c2)cc1-n1cncn1 [Compound 141, N-methyl-2-(1,2,4-triazol-1-yl)-4-[3-[(2R,3S,4R,5S,6R)-3,4,5-trihydroxy-6-(hydroxymethyl)tetrahydropyran-2-yl]phenyl]benzamide] | 56.2 ± 20 |
| OC[C@H]1OC(c2cccc(OCc3ccccc3-c3ccccc3)c2)[C@@H](O)[C@@H](O)[C@@H]1O (some centres unmarked) [Compound 220] | 16.6 ± 4.4 |
| Cc1nnc(-c2ccc(-c3cccc([C@H]4O[C@H](CO)[C@@H](O)[C@H](O)[C@@H]4O)c3)cc2F)o1 [Compound 150, (2R,3S,4R,5S,6R)-2-[3-[3-Fluoro-4-(5-methyl-1,3,4-oxadiazol-2-yl)phenyl]phenyl]-6-(hydroxymethyl)tetrahydropyran-3,4,5-triol] | 25.9 ± 5.1 |
| Cc1c(-c2cccc(S(C)(=O)=O)c2)cccc1[C@H]1O[C@H](CO)[C@@H](O)[C@H](O)[C@@H]1O [Compound 110, (2R,3S,4R,5S,6R)-2-(Hydroxymethyl)-6-[2-methyl-3-(3-methylsulfonylphenyl)phenyl]tetrahydropyran-3,4,5-triol] | 28.9 ± 4.5 |
| CCC(C)COc1cccc(C2O[C@H](CO)[C@@H](O)[C@H](O)[C@@H]2O)c1 (some centres unmarked) [Compound 207] | 9.4 ± 4.3 |
| OC[C@H]1OC(c2cccc(OCc3cc(Cl)cc(Cl)c3)c2)[C@@H](O)[C@@H](O)[C@@H]1O (some centres unmarked) [Compound 226] | 32.1 ± 8.9 |
| OC[C@H]1OC(c2cccc(OCCC3CCCCC3)c2)[C@@H](O)[C@@H](O)[C@@H]1O (some centres unmarked) [Compound 216] | 16.4 ± 5.2 |
| OC[C@H]1OC(c2ccc(OCc3cc(Cl)cc(Cl)c3)cc2)[C@@H](O)[C@@H](O)[C@@H]1O (some centres unmarked) [Compound 250] | 40.6 ± 23.4 |
| OC[C@H]1OC(c2cccc(OCCCc3ccccc3)c2)[C@@H](O)[C@@H](O)[C@@H]1O (some centres unmarked) [Compound 217] | 12.1 ± 7.6 |
| OC[C@H]1OC(c2ccc(OCc3cccc4cccnc34)cc2)[C@@H](O)[C@@H](O)[C@@H]1O (some centres unmarked) [Compound 240] | 7.6 ± 0.9 |
| OC[C@H]1O[C@H](c2ccc3cc(O)ccc3c2)[C@@H](O)[C@@H](O)[C@@H]1O [Compound 156, (2R,3S,4R,5S,6R)-2-(hydroxymethyl)-6-(6-hydroxy-2-naphthyl)tetrahydropyran-3,4,5-triol] | 16.5 ± 4.3 |
| OC[C@H]1O[C@H](c2cccc(CCCc3cc(Cl)cc(Cl)c3)c2)[C@@H](O)[C@@H](O)[C@@H]1O [Compound 98, (2R,3S,4R,5S,6R)-2-[3-[3-(3,5-Dichlorophenyl)propyl]phenyl]-6-(hydroxymethyl)tetrahydropyran-3,4,5-triol] | 27.8 ± 2.1 |
| Cc1c(-c2ccc(-c3ccn(C)n3)cc2)cccc1[C@H]1O[C@H](CO)[C@@H](O)[C@H](O)[C@@H]1O [Compound 108, (2R,3S,4R,5S,6R)-2-(Hydroxymethyl)-6-[2-methyl-3-[4-(1-methylpyrazol-3-yl)phenyl]phenyl]tetrahydropyran-3,4,5-triol] | 7.9 ± 2.9 |
| CNC(=O)COc1cccc(C2O[C@H](CO)[C@@H](O)[C@H](O)[C@@H]2O)c1 (some centres unmarked) [Compound 212] | 18.9 ± 0.8 |
| OC[C@H]1OC(c2ccc(OCc3cccc4nonc34)cc2)[C@@H](O)[C@@H](O)[C@@H]1O (some centres unmarked) [Compound 251] | 29.9 ± 13.9 |
| CNC(=O)c1cc(/C=C/Cc2cccc([C@H]3O[C@H](CO)[C@@H](O)[C@H](O)[C@@H]3O)c2)cc(C(=O)NC)c1 [Compound 94, N1,N3-Dimethyl-5-[(E)-3-[3-[(2R,3S,4R,5S,6R)-3,4,5-trihydroxy-6-(hydroxymethyl)tetrahydropyran-2-yl]phenyl]prop-1-enyl]benzene-1,3-dicarboxamide] | 94.4 ± 13 |
| CC(C)CCOc1ccc(C2O[C@H](CO)[C@@H](O)[C@H](O)[C@@H]2O)cc1 (some centres unmarked) [Compound 232] | 8.5 ± 4.2 |
| OC[C@H]1OC(c2cccc(OCC3CCO3)c2)[C@@H](O)[C@@H](O)[C@@H]1O (some centres unmarked) [Compound 210] | 24.2 ± 1.3 |
| CNC(=O)c1cc(C#Cc2cccc([C@H]3O[C@H](CO)[C@@H](O)[C@H](O)[C@@H]3O)c2C)cc(C(=O)NC)c1 [Compound 90, N1,N3-Dimethyl-5-[2-[2-methyl-3-[(2R,3S,4R,5S,6R)-3,4,5-trihydroxy-6-(hydroxymethyl)tetrahydropyran-2-yl]phenyl]ethynyl]benzene-1,3-dicarboxamide] | 20.3 ± 2.2 |
| COC(=O)c1cccc(C#Cc2cccc([C@H]3O[C@H](CO)[C@@H](O)[C@H](O)[C@@H]3O)c2)c1 [Compound 86, Methyl 3-[2-[3-[(2R,3S,4R,5S,6R)-3,4,5-trihydroxy-6-(hydroxymethyl)tetrahydropyran-2-yl]phenyl]ethynyl]benzoate] | 23.7 ± 10.8 |
| Cc1nnc(-c2ccc(-c3cccc([C@H]4O[C@H](CO)[C@@H](O)[C@H](O)[C@@H]4O)c3C)cc2)o1 [Compound 104, (2R,3S,4R,5S,6R)-2-(Hydroxymethyl)-6-[2-methyl-3-[4-(5-methyl-1,3,4-oxadiazol-2-yl)phenyl]phenyl]tetrahydropyran-3,4,5-triol] | 8.5 ± 3.1 |
| Cc1nnc(-c2cccc(-c3cccc([C@H]4O[C@H](CO)[C@@H](O)[C@H](O)[C@@H]4O)c3)c2)o1 [Compound 123, (2R,3S,4R,5S,6R)-2-(hydroxymethyl)-6-[3-[3-(5-methyl-1,3,4-oxadiazol-2-yl)phenyl]phenyl]tetrahydropyran-3,4,5-triol] | 37.1 ± 8.5 |
| C#Cc1cccc([C@H]2O[C@H](CO)[C@@H](O)[C@H](O)[C@@H]2O)c1 [Compound 73, ((2R,3S,4R,5S,6R)-2-(3-Ethynylphenyl)-6-(hydroxymethyl)tetrahydropyran-3,4,5-triol)] | 33.8 ± 13.6 |
| OC[C@H]1OC(c2ccc(OCc3ccc4ccccc4c3)cc2)[C@@H](O)[C@@H](O)[C@@H]1O (some centres unmarked) [Compound 244] | 23.3 ± 1.1 |
| O=C(COc1cccc(C2O[C@H](CO)[C@@H](O)[C@H](O)[C@@H]2O)c1)C1CCCCC1 (some centres unmarked) [Compound 218] | 8.7 ± 1.4 |
| CNC(=O)c1cccc(C#Cc2cccc([C@H]3O[C@H](CO)[C@@H](O)[C@H](O)[C@@H]3O)c2)c1 [Compound 93, N-Methyl-3-[2-[3-[(2R,3S,4R,5S,6R)-3,4,5-trihydroxy-6-(hydroxymethyl)tetrahydropyran-2-yl]phenyl]ethynyl]benzamide] | 7.5 ± 2.5 |
| OC[C@H]1O[C@H](c2ccc(F)c(O)c2)[C@@H](O)[C@@H](O)[C@@H]1O [Compound 193, (2R,3S,4R,5S,6R)-2-(4-fluoro-3-hydroxy-phenyl)-6-(hydroxymethyl)tetrahydropyran-3,4,5-triol] | 30.6 ± 1.1 |
| CNC(=O)c1cc(CCCc2cccc([C@H]3O[C@H](CO)[C@@H](O)[C@H](O)[C@@H]3O)c2)cc(C(=O)NC)c1 [Compound 97, N1,N3-Dimethyl-5-[3-[3-[(2R,3S,4R,5S,6R)-3,4,5-trihydroxy-6-(hydroxymethyl)tetrahydropyran-2-yl]phenyl]propyl]benzene-1,3-dicarboxamide] | 31.6 ± 17.5 |
| CNC(=O)c1cccc(-c2ccc(-c3ccc([C@H]4O[C@H](CO)[C@@H](O)[C@H](O)[C@@H]4O)cc3)c(C)c2)c1 [Compound 158, N-methyl-3-[3-methyl-4-[4-[(2R,3S,4R,5S,6R)-3,4,5-trihydroxy-6-(hydroxymethyl)tetrahydropyran-2-yl]phenyl]phenyl]benzamide] | 20.5 ± 4.3 |
